{"source": "paper PMC2361651", "about": "(British Journal of Cancer, 2005)", "key": {"[1]": {"experiment": "Plasma pharmacokinetics of SU5416 and metabolites in Phase I patients (HPLC UV)", "format": "in vivo, human", "conditions": "plasma, patients", "method": "Samples were taken prior to treatment infusion, 15 min into the infusion, at completion of the infusion and then at 5, 10, 20, 30, 45, 60, 120 and 240 min following the infusion. […] At the designated times, 4.0 ml of blood were collected into a lithium heparin tube, gently inverted and placed on ice to maintain the sample at 2–8°C. All samples were immediately centrifuged at 6000 r.p.m. at 4°C for 10 min, the supernatant divided between two 1.5 ml Nalgene cryovials and snap frozen in liquid nitrogen. Separated plasma samples were subsequently stored at −70°C until analysis.\nPharmacokinetic analysis was performed using a fully validated HPLC UV method ([Stopeck et al, 2002]). Plasma samples, standards (25–2000 ng ml^−1) and quality controls spiked with internal standards were extracted with acetonitrile. Following centrifugation, drying and reconstitution in 200 μl mobile phase, 20 μl were analysed by HPLC UV. Chromatography was carried out using a C18 analytical column, with a gradient mobile phase containing acetonitrile and 10 mM ammonium formate at pH 2.6. The flow rate was 0.8 ml min^−1 and the run-time 21 min. Detection was via UV absorption at a wavelength of 440 nm. The accuracy of the assay, reflected in relative error of measured concentration to theoretical (prepared) concentrations, was between 0.9 and 5.6% for all quality control samples.\nPharmacokinetic parameters were evaluated using WinNonLin Software®."}, "[2]": {"test_system": "receptor tyrosine kinases inhibited by the parent compound", "parameters": "method as in Mendel et al, 2000", "conditions": "ref Mendel et al, 2000; cited from earlier work"}}}
{"compound": "Cc1cc(CO)[nH]c1/C=C1\\C(=O)Nc2ccccc21", "note": "[SU9838]", "values": [{"measurement": "distribution and clearance of metabolite", "setting": "[1]", "value": "large volume of distribution and rapid clearance"}, {"measurement": "metabolite as proportion of the total", "setting": "[1]", "value": 5.2, "unit": "%"}, {"measurement": "inhibitory activity for the receptor tyrosine kinases inhibited by the parent compound", "setting": "[2]", "value": "Neither metabolite shows inhibitory activity"}]}
